Results as given in the supplement of paper PMC10011410.
± gives the standard deviation of the averaged measurements.

Key:
Conditions in all cases: 24 h
U-2 OS [1] = test: relative cell count vs DMSO (cell painting) (fraction of DMSO control); higher = more cells remaining (less cytotoxic)
Procedure, shortened: (§1)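 Images taken on an Opera Phenix of U-2 OS cells stained with MitoTracker, concanavalin A, phalloidin, wheat germ agglutinin, Hoechst and SYTO 14 were processed in CellProfiler, with features normalized to DMSO cells on the same plate. The cells, about 1,500 per well in 384-well plates, had been treated by pin tool for 24 h at 37 °C, usually at six 2-fold concentrations from 20 μM to 625 nM. The activity score measures Mahalanobis distance from DMSO wells, and cell count is expressed relative to DMSO wells. Each value averages four replicate plates.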

U-2 OS [2] = test: cell viability (CellTiter-Glo) relative to DMSO (% of control); higher = more viable
Procedure: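 Cell viability of U-2 OS cells by CellTiter-Glo after 24 h compound treatment at 5, 10 and 20 uM (some at 40 and 80 uM), measured in parallel with the glutathione assay, as percent of DMSO control. Five technical replicate plates, averaged.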

U-2 OS [3] = test: intracellular GSH:GSSG ratio (calculated); higher = more reduced glutathione pool
Procedure: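 Intracellular glutathione in U-2 OS cells after 24 h compound treatment at 5, 10 and 20 uM (some at 40 and 80 uM). Total glutathione and GSSG were measured with the GSH/GSSG-Glo kit, and the GSH:GSSG ratio was calculated. Mean of five technical replicate plates.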

U-2 OS [4] = test: total intracellular glutathione (GSH + GSSG) relative to DMSO (% of control); higher = more glutathione
Procedure: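 Total intracellular glutathione (GSH + GSSG) in U-2 OS cells by GSH/GSSG-Glo after 24 h compound treatment at 5, 10 and 20 uM (some at 40 and 80 uM), as percent of DMSO control. Five technical replicate plates, averaged.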

U-2 OS [5] = test: cell painting activity score (Mahalanobis distance from DMSO wells); higher = stronger morphological phenotype
Procedure, shortened: as §1

SMILES	relative cell count (U-2 OS [1]; 0.625 µM)	relative cell count (U-2 OS [1]; 1.25 µM)	relative cell count (U-2 OS [1]; 2.5 µM)	relative cell count (U-2 OS [1]; 5 µM)	relative cell count (U-2 OS [1]; 10 µM)	relative cell count (U-2 OS [1]; 20 µM)	cell viability (U-2 OS [2]; 5 µM)	cell viability (U-2 OS [2]; 10 µM)	cell viability (U-2 OS [2]; 20 µM)	intracellular GSH:GSSG ratio (U-2 OS [3]; 5 µM)	intracellular GSH:GSSG ratio (U-2 OS [3]; 10 µM)	intracellular GSH:GSSG ratio (U-2 OS [3]; 20 µM)	total intracellular glutathione (U-2 OS [4]; 5 µM)	total intracellular glutathione (U-2 OS [4]; 10 µM)	total intracellular glutathione (U-2 OS [4]; 20 µM)	cell painting activity score (U-2 OS [5]; 0.625 µM)	cell painting activity score (U-2 OS [5]; 1.25 µM)	cell painting activity score (U-2 OS [5]; 2.5 µM)	cell painting activity score (U-2 OS [5]; 5 µM)	cell painting activity score (U-2 OS [5]; 10 µM)	cell painting activity score (U-2 OS [5]; 20 µM)	cell viability (U-2 OS [2]; 40 µM)	cell viability (U-2 OS [2]; 80 µM)	intracellular GSH:GSSG ratio (U-2 OS [3]; 40 µM)	intracellular GSH:GSSG ratio (U-2 OS [3]; 80 µM)	total intracellular glutathione (U-2 OS [4]; 40 µM)	total intracellular glutathione (U-2 OS [4]; 80 µM)
COc1cccc2c1C(=O)c1c(O)c3c(c(O)c1C2=O)C[C@@](O)(C(=O)CO)C[C@@H]3O[C@H]1C[C@H](N)[C@H](O)[C@H](C)O1	0.473 ± 0.035	0.5 ± 0.033	0.431 ± 0.044	0.404 ± 0.081	0.311 ± 0.025	0.2492 ± 0.0023	54.3 ± 2.8	38.7 ± 6.3	21.7 ± 1.3	12.1	13	5.76	51.8 ± 7.2	34.9 ± 5.7	18.7 ± 1.3	15.7 ± 0.51	17.8 ± 2.5	18.5 ± 2.1	19.7 ± 0.41	20.8 ± 0.47	24.3 ± 0.053						
C[C@@H]1CC[C@@]2(OC1)O[C@H]1[C@@H](O)[C@H]3[C@@H]4CC[C@H]5C[C@@H](O[C@@H]6O[C@H](CO)[C@H](O[C@@H]7O[C@H](CO)[C@@H](O)[C@H](O[C@@H]8OC[C@@H](O)[C@H](O)[C@H]8O)[C@H]7O[C@@H]7O[C@H](CO)[C@H](O)[C@H](O[C@@H]8O[C@H](CO)[C@@H](O)[C@H](O)[C@H]8O)[C@H]7O)[C@H](O)[C@H]6O)[C@H](O)C[C@]5(C)[C@H]4CC[C@]3(C)[C@H]1[C@@H]2C	0.85	0.742	0.753	0.19	0.117	0.0498	64.5 ± 5.7	36.8 ± 12	8.23 ± 3.5	13.7	20.4	11.7	76.2 ± 7.3	45.1 ± 18	21 ± 4.2	7.99	7.32	7.71	8.51	13.6	28.6						
COc1cc(/C=C/C(=O)CC(=O)/C=C/c2ccc(O)c(OC)c2)ccc1O	0.919	0.894	0.876	0.892	0.772	0.482	101 ± 7.1	90 ± 6.6	70.2 ± 3.2	16.9	10.3	6.3	112 ± 20	116 ± 3.4	100 ± 5.8	3.83	3.58	4.65	6.94	9.69	10.7	40.9 ± 2.8	36.2 ± 3.8	4.46	0.7	44.2 ± 2.1	41.5 ± 3.5
O=[N+]([O-])c1c(Sc2ncnc3nc[nH]c23)cc(Cl)c2nsnc12	0.924	0.936	0.903	0.912	0.96	0.913	41.6 ± 9.6	5.86 ± 1.9	12 ± 2.9	9.07	1.18	2.18	74 ± 19	32.4 ± 4.7	43.3 ± 3.9	3.42	4.43	4.96	4.68	3.76	3.8						
O=S1(=O)CC(Sc2cccs2)c2ccccc21 (stereo not drawn)	1.02	0.974	0.948	1	0.984	0.61	103 ± 5.5	100 ± 5.5	104 ± 4.5	25.2	24.8	30	115 ± 4.9	107 ± 9.4	120 ± 8.6	3.43	3.86	4.15	3.78	3.12	10.7						
C=CC(=O)Nc1cccc(Nc2nc(Nc3ccc(Oc4ccnc(C(=O)NC)c4)cc3)ncc2F)c1	1	0.96	0.987	0.953	0.961	0.93	75.8 ± 3.4	59.5 ± 6.1	1.84 ± 1.1	17.7	5.85	2.15	64.2 ± 2	55.9 ± 4.7	5.78 ± 1.6	4.92	4.2	6.51	4.99	8.06	9.39						
O=S1(=O)CC(SCc2ccccc2)c2ccccc21 (stereo not drawn)	1.13	1.12	1.06	1.07	1.14	1.12	107 ± 2.6	104 ± 5.2	97.8 ± 5.9	30.3	20.1	26.3	105 ± 2.7	98.7 ± 6.5	106 ± 6.4	4.11	4.32	4.24	4.29	3.77	3.73						
COc1ccc(C[C@H](N)C(=O)N[C@H]2[C@@H](O)[C@H](n3cnc4c(N(C)C)ncnc43)O[C@@H]2CO)cc1	1.04	0.891	0.637	0.283	0.157	0.0622	10.2 ± 1.6	2.46 ± 0.44	1.28 ± 0.26	3.09	1.12		12.5 ± 1.3	4.88 ± 0.7	4.55 ± 0.68	13.8	17.7	20.2	25.3	32.9	33.9						
